Experiments:
[1] = Metabolic stability in mouse liver microsome assessed as parent compound remaining at 1 mg/mL measured after 10 mins; assay type: ADME; settings: liver microsomes, read-out: Stability
[2] = Metabolic stability in rat liver microsome assessed as parent compound remaining at 1 mg/mL measured after 10 mins; assay type: ADME; settings: liver microsomes, read-out: Stability
[3] = Metabolic stability in human liver microsome assessed as parent compound remaining at 1 mg/mL measured after 10 mins; assay type: ADME; settings: liver microsomes, read-out: Stability
[4] = target: T1, Bile acid receptor (Homo sapiens) (UniProt Q96RI1); experiment: Agonist activity at LBD-fused human FXR in HEK293 cells incubated for 30 min by envision plate reader method relative to GW2064; assay type: cell-based
T1 sequence (whole entry): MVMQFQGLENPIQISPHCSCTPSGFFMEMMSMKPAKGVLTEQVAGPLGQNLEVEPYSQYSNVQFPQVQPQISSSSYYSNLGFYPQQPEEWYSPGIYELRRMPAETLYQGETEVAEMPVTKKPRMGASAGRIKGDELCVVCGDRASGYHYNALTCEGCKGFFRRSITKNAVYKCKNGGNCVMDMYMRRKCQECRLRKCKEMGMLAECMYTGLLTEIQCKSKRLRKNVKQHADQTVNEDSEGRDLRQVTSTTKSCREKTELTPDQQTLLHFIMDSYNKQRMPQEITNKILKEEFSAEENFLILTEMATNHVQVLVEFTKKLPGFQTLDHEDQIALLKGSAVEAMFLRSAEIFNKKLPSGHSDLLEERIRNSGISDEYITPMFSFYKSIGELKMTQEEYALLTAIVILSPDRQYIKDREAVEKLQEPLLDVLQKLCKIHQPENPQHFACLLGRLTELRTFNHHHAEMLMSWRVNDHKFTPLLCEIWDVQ

[5] = target: T2, Bile acid receptor (Mus musculus) (UniProt Q60641); experiment: Agonist activity at LBD-fused mouse FXR in HEK293 cells incubated for 30 min by envision plate reader method relative to GW2064; assay type: cell-based; settings: filed as agonist
T2 sequence (whole entry): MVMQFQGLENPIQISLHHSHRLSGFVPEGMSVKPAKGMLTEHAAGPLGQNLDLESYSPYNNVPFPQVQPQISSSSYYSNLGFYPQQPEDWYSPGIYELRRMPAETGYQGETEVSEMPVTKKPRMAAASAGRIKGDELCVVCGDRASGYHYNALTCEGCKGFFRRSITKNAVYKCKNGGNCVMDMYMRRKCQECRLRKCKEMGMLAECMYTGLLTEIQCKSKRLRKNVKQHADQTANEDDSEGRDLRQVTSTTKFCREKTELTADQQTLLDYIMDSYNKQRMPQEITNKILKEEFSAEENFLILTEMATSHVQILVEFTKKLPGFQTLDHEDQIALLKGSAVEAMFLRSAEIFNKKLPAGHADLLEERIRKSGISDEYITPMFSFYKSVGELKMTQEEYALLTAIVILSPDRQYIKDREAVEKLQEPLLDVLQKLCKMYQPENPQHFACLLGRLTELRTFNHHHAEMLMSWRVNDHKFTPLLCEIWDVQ

[6] = target: T3, Bile acid receptor (Homo sapiens, UniProt Q96RI1); experiment: Agonist activity at Gal4-fused human FXR in HEK293 cells incubated for 15 min by luciferase reporter assay; assay type: cell-based
T3 sequence (Q96RI1 whole entry): T1 sequence (whole entry)

[7] = test system: Bile acid receptor (Homo sapiens); experiment: Agonist activity at human FXR expressed in HEK293 cells coexpressing IBABP relative to GW2064; settings: filed as agonist
[8] = test system: Bile acid receptor (Homo sapiens); experiment: Agonist activity at human FXR expressed in HEK293 cells coexpressing human FGF19 incubated for 24 hrs by ELISA analysis relative to GW2064
[9] = target: T4, Bile acid receptor (Mus musculus, UniProt Q60641); experiment: Agonist activity at mouse LBD fused FXR in HEK293 cells incubated for 30 min by envision plate reader method; assay type: cell-based
T4 sequence (Q60641 whole entry): T2 sequence (whole entry)

Row | remaining at 10 min [1] | remaining at 10 min, 1 mg/mL [2] | remaining at 10 min [3] | Emax [4] | Emax [5] | EC50 [6] | Emax [7] | Emax [8] | EC50 [9] | SMILES
1 | 77% | 32% | 90% | 30% | 279% | 66 nM | 42% | 24% | – | COC(=O)/C=C/c1cccc(N(CC23CCC(c4ccc(N(C)C)cc4)(CC2)CC3)C(=O)C2CCCCC2)c1
2 | – | – | – | – | – | – | – | – | 320 nM | O=C(O)c1cc(C(F)(F)F)c2cc(N3CCC4(C=C(c5c(-c6c(Cl)cncc6Cl)noc5C5CC5)C4)CC3)ccc2n1
